Assay results: ChEMBL document CHEMBL3120096 (J Med Chem, 2014); call rule not given here

Tests used:
[1] = Ratio of unbound drug level in brain to plasma in Sprague-Dawley rat; format: ADME, organism-based
[2] = species: Homo sapiens; experiment: Selectivity ratio of Ki for JAK2 (unknown origin) to Ki for LRRK2 (unknown origin)
[3] = Clearance in rat hepatocytes at 1 uM by LC-MS/MS analysis; format: ADME, cell-based, Hepatocyte
[4] = tested on: Rattus norvegicus; experiment: Unbound clearance in Sprague-Dawley rat at 1 mg/kg, po and 0.5 mg/kg, iv; format: ADME, organism-based; conditions: in vivo
[5] = target: MDR1 (P-gp, ABCB1) (Homo sapiens, UniProt P08183); experiment: Activity at human MDR1 transfected in MDCK cells assessed as efflux ratio of apparent permeability from basolateral to apical side over apical to basolateral side at 5 uM; format: ADME, cell-based
Sequence of MDR1 (P-gp, ABCB1) (P08183 whole entry): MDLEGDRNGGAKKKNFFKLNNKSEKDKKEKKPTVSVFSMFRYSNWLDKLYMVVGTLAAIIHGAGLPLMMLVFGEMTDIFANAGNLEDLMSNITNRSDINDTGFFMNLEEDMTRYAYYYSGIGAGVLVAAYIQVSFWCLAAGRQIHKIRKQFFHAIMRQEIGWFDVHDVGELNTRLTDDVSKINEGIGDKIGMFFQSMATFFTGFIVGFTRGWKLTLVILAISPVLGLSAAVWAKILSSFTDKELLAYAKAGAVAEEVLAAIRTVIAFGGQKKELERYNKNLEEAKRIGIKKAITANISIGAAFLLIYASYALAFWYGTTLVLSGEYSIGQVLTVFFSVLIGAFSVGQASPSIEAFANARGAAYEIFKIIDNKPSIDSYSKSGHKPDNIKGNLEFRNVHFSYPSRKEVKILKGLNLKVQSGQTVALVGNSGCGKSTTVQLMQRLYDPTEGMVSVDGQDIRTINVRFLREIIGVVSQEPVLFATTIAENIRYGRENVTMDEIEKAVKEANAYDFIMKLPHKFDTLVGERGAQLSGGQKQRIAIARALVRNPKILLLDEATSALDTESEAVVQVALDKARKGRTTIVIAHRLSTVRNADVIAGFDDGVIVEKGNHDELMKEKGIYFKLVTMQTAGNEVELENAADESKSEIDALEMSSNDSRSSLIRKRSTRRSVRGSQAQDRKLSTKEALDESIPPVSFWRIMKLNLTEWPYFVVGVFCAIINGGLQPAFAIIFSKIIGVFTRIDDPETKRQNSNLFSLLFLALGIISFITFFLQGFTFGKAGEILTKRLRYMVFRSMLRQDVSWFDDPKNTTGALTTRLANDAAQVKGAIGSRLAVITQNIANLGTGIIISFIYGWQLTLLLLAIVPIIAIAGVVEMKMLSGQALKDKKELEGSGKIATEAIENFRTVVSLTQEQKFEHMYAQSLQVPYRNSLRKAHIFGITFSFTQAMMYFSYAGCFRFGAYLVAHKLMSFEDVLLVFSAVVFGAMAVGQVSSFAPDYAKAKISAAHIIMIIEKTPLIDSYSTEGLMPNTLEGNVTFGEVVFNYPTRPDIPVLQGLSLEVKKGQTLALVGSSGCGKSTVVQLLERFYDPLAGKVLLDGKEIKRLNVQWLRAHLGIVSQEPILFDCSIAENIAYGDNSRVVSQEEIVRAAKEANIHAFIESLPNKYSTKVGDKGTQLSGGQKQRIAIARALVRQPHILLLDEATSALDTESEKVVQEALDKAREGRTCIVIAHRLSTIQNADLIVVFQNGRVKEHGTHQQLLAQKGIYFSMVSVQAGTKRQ

[6] = Clearance in human hepatocytes at 1 uM by LC-MS/MS analysis; format: ADME, cell-based, Hepatocyte
[7] = Clearance in Sprague-Dawley rat at 1 mg/kg, po and 0.5 mg/kg, iv; format: ADME, organism-based; conditions: in vivo
[8] = target: T1, Leucine-rich repeat serine/threonine-protein kinase 2 (Homo sapiens, UniProt Q5S007); experiment: Inhibition of LRRK2 (unknown origin)
T1 sequence (Q5S007 whole entry): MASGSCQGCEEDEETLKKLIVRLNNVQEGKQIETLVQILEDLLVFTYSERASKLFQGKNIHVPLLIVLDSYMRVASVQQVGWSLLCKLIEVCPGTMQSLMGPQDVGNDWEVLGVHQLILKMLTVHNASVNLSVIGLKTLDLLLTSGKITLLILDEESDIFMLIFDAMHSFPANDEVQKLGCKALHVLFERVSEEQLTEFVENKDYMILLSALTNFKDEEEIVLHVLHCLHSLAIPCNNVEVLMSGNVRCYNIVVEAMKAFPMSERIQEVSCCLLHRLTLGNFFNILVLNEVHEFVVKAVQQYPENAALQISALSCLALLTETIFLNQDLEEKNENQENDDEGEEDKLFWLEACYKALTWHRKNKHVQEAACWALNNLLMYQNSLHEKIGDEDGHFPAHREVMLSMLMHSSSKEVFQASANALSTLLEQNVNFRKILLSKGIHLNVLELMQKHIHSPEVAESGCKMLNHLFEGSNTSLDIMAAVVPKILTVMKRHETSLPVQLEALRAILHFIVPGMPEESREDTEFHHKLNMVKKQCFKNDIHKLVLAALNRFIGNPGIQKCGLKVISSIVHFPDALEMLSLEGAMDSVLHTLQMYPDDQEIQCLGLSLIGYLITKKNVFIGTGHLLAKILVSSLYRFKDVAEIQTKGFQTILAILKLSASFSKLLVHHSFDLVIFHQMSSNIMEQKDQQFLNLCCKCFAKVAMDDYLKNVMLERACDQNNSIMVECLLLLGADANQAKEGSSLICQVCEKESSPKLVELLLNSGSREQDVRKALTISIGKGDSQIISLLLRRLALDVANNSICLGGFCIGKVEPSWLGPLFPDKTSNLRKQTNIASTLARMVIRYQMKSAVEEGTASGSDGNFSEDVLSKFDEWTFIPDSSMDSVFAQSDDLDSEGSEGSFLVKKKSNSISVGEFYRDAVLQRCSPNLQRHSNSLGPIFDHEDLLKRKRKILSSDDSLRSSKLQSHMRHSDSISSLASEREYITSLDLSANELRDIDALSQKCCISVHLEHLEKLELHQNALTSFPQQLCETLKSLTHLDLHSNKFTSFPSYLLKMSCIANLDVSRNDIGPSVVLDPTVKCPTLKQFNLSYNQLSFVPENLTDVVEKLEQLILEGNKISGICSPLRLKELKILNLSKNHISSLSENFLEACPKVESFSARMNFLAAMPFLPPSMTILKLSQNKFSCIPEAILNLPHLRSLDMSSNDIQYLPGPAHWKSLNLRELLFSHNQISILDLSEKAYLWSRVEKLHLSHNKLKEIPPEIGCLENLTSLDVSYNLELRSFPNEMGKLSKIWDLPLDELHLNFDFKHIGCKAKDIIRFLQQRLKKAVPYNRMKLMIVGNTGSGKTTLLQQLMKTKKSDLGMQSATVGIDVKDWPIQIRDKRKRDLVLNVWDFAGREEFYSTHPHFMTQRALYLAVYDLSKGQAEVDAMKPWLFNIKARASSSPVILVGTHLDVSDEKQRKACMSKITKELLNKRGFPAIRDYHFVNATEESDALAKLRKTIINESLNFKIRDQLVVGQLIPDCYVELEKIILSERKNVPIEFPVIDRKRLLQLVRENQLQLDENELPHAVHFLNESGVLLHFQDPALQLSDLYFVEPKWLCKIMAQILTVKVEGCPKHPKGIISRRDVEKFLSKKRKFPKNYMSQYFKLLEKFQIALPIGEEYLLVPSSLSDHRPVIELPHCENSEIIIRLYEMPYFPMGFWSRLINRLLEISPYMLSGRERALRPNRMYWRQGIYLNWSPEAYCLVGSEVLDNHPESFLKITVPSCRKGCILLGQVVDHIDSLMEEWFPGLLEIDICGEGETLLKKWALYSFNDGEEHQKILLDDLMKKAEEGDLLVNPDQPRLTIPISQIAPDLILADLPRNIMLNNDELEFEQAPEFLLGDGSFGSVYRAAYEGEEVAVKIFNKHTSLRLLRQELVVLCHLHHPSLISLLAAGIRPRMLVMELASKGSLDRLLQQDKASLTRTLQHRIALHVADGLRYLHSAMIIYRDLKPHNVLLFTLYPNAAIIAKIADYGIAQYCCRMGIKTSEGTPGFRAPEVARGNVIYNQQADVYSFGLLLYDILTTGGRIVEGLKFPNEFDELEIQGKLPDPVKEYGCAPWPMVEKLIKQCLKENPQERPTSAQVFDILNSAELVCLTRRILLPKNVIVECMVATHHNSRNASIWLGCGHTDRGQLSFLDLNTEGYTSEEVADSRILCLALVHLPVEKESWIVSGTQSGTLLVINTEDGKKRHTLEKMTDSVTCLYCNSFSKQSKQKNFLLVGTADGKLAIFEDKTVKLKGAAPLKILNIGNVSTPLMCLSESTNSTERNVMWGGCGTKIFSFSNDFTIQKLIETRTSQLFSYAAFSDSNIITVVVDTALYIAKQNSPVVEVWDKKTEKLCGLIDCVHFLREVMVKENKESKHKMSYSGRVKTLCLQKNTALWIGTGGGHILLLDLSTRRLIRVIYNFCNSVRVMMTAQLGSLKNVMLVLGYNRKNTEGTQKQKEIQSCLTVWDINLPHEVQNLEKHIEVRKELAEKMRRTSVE

[9] = target: T1, Leucine-rich repeat serine/threonine-protein kinase 2; experiment: Inhibition of LRRK2 (unknown origin) phosphorylation by cell-based assay
[10] = target: T2, BCRP (ABCG2) (Homo sapiens, UniProt Q9UNQ0); experiment: Activity at BCRP transporter (unknown origin) transfected in MDCK cells assessed as efflux ratio of permeability; format: ADME, cell-based
T2 sequence (Q9UNQ0 whole entry): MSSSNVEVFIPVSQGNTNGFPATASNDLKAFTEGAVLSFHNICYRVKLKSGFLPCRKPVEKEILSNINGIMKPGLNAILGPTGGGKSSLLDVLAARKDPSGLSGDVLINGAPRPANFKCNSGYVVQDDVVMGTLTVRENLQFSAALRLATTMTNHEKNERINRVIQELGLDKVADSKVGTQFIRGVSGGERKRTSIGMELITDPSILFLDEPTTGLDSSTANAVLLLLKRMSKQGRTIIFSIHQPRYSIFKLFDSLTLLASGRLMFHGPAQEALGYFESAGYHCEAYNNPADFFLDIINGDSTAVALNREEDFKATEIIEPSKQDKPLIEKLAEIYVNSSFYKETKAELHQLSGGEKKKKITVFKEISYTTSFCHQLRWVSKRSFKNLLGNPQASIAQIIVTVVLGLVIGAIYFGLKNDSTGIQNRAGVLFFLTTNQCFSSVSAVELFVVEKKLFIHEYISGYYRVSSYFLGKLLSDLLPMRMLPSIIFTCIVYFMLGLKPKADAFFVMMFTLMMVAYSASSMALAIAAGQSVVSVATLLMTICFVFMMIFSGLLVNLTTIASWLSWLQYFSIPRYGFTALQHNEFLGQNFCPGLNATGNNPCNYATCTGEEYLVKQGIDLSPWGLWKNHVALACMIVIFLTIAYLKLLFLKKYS

[11] = Time dependent inhibition of CYP in human liver microsomes by HPLC-MS analysis; format: ADME
[12] = Volume of distribution in Sprague-Dawley rat at 1 mg/kg, po and 0.5 mg/kg, iv; format: ADME, organism-based; conditions: in vivo
[13] = Half life in Sprague-Dawley rat at 1 mg/kg, po and 0.5 mg/kg, iv; format: ADME, organism-based; conditions: in vivo
[14] = Reversible inhibition of CYP in human liver microsomes by mass spectrophotometric analysis; format: ADME

Work on CCNc1nc(Nc2cc(C(C)(C)C#N)nn2C)ncc1C(F)(F)F yielded a Kp uu [1] of 0.5, a Ratio Ki [2] of over 150 and a CLhep predicted at 1 µM [3] of 18 mL/min/kg. It also gave a CL free [4] of 201 mL/min/kg, an efflux ratio at 5 µM [5] of 1.5 and a CLhep predicted at 1 µM [6] of 5 mL/min/kg. For the same compound, the clearance [7] was 27 mL/min/kg.

In the case of CNc1nc(Nc2cnn3c2COCC3)ncc1C(F)(F)F, the Ratio Ki [2] is reported as over 150, the Ki [8] is reported as 3 nM and the efflux ratio at 5 µM [5] is reported as 1. It also gave an IC50 [9] of 18 nM.

With CNc1nc(Nc2cnn(C3(C#N)CC3)c2Cl)ncc1C(F)(F)F the Kp uu [1] was 0.6, the Ratio Ki [2] was over 150 and the Ki [8] was 2 nM. For the same compound, the CLhep predicted at 1 µM [3] was 30 mL/min/kg, the CL free [4] was 431 mL/min/kg and the efflux ratio at 5 µM [5] was 1.3. The IC50 [9] was 22 nM, the CLhep predicted at 1 µM [6] was 9 mL/min/kg and the clearance [7] was 22 mL/min/kg.

In the case of CNc1nc(Nc2cnn3c2C(C)OCC3)ncc1C(F)(F)F (stereo not drawn), the Ratio Ki [2] is reported as over 150, the Ki [8] is reported as 3 nM and the CLhep predicted at 1 µM [3] is reported as 19 mL/min/kg. It also gave a CL free [4] of 105 mL/min/kg, an efflux ratio at 5 µM [5] of 1.3 and an IC50 [9] of 42 nM. For the same compound, the CLhep predicted at 1 µM [6] was 3 mL/min/kg and the clearance [7] was 43 mL/min/kg.

Work on CNC(=O)C(C)(C)n1cc(Nc2ncc(C(F)(F)F)c(NC)n2)c(C)n1 yielded a Ratio Ki [2] of over 150, a CL free [4] of 27 mL/min/kg and an efflux ratio at 5 µM [5] of 5.5. It also gave an IC50 [9] of 36 nM and a clearance [7] of 12 mL/min/kg.

With CNc1nc(Nc2cnn3c2C(C)O[C@@H](C)C3)ncc1C(F)(F)F (stereo partly drawn) the Ratio Ki [2] was over 150, the Ki [8] was 6 nM and the efflux ratio at 5 µM [5] was 1. The IC50 [9] was 49 nM and the CLhep predicted at 1 µM [6] was 8 mL/min/kg.

Work on CNc1nc(Nc2cn([C@H]3CCN(C4COC4)C[C@H]3F)nc2C)ncc1C(F)(F)F (relative stereo) yielded a Kp uu [1] of 0.08, a Ratio Ki [2] of over 150 and a Ki [8] of 2 nM. For the same compound, the efflux ratio [10] was 4.2, the CL free [4] was 42 mL/min/kg and the efflux ratio at 5 µM [5] was 2.2. For the same compound, the IC50 [9] was 14 nM, the CLhep predicted at 1 µM [6] was 1 mL/min/kg and the clearance [7] was 16 mL/min/kg.

For CNc1nc(Nc2cnn(C3CCN(C4COC4)CC3)c2C)ncc1C(F)(F)F, the Kp uu [1] was 0.06, the “inhibition (INH)” value [11] was “Not Active” and the Ratio Ki [2] was over 150. The Vd [12] was 1.7 L/kg, the Ki [8] was 4 nM and the CLhep predicted at 1 µM [3] was 9 mL/min/kg. It also gave a CL free [4] of 45 mL/min/kg, an efflux ratio at 5 µM [5] of 5.1 and an IC50 [9] of 20 nM. It also gave a half-life [13] of 2.1 h, a CLhep predicted at 1 µM [6] of 3 mL/min/kg and a clearance [7] of 22 mL/min/kg. For the same compound, the “inhibition (INH)” value [14] was “Not Active”.

With CNc1nc(Nc2cn(C(C)(C)C(=O)NCC(F)(F)F)nc2C)ncc1C(F)(F)F the Ratio Ki [2] was over 150, the efflux ratio at 5 µM [5] was 1.5 and the IC50 [9] was 53 nM.
